In patent publication US20070135431A1, “INHIBITORS OF HISTONE DEACETYLASE FOR THE TREATMENT OF DISEASE” (KALYPSYS, INC, priority 2005, published 2007):
pIC50: −log10 of the molar value.

Legend:
[1] = system: HDAC; assay: In vitro HDAC-inhibition assay (Fluor de Lys fluorescent activity assay); type: biochemical; conditions: HDAC enzyme source (e.g. nuclear extract or immunopurified HDAC complexes), Fluor de Lys substrate, 30 minutes RT
Description: 1) In vitro HDAC-inhibition Assay:
This assay measures a compound's ability to inhibit acetyl-lysine deacetylation in vitro and was used as both a primary screening method as well as for IC50 determinations of confirmed inhibitors. The assay is performed in vitro using an HDAC enzyme source (e.g. partially purified nuclear extract or immunopurified HDAC complexes) and a proprietary fluorescent substrate/developer system (HDAC Quantizyme Fluor de Lys Fluorescent Activity Assay, BIOMOL). The assay is run in 1,536-well Greiner white-bottom plates using the following volumes and order of addition: • Step 1: Enzyme (2.5 μL) source added to plate (from refrigerated container) • Step 2: Compounds (50 nL) added with pin transfer device • Step 3: Fluor de Lys (2.5 μL) substrate added, incubate at RT, 30 minutes • Step 4: Developer (5 μL) solution is added (containing TSA), to stop reaction • Step 5: Plate Reader—data collection
The deacetylated fluorophore is excited with 360 nm light and the emitted light (460 nm) is detected on an automated fluorometric plate reader (Aquest, Molecular Devices).

[2] = system: HDAC in cells; assay: Cellular HDAC inhibition (cellular histone hyperacetylation / cytotoxicity assays; Table 1 only says Cellular IC50); type: cell-based; conditions: transformed cell lines (e.g. HeLa, A549, MCF-7); cell line not given
Description: 2) Cellular Histone Hyperacetylation Assays:
These two secondary assays evaluate a compound's ability to inhibit HDAC in cells by measuring cellular histone acetylation levels. The cytoblot facilitates quantitative EC50 information for cellular HDAC inhibition. Transformed cell lines (e.g. HeLa, A549, MCF-7) are cultured under standard media and culture conditions prior to plating.
Cells (approx. 2,500/well) are allowed to adhere 10-24 hours to wells of a 384-well Greiner PS assay plate in media containing 1-5% serum. Cells are treated with appropriate compound and specific concentrations for 0 to 24 hours. Cells are washed once with PBS (60 μL) and then fixed (95% ethanol, 5% acetic acid or 2% PFA) for 1 minute at RT (30 μL). Cells are blocked with 1% BSA for 1 hour and washed and stained with antibody (e.g. anti-Acetylated Histone H3, Upstate Biotechnology), followed by washing and incubation with an appropriate secondary antibody conjugated to HRP or fluorophore. For luminescence assays, signal is generated using Luminol substrate (Santa Cruz Biotechnology) and detected using an Aquest plate reader (Molecular Devices).
3) Differential Cytotoxicity Assay:
HDAC inhibitors display differential cytotoxicity toward certain transformed cell lines. Cells are cultured according to standard ATCC recommended conditions that are appropriate to each cell type. Compounds were tested for their ability to kill different cell types (normal and transformed) using the ATPlite luminescence ATP detection assay system (Perkin Elmer). Assays are run in either 384-well or 1536-well Greiner PS plates. Cells (30 μL or 5 μL, respectively) are dispensed using either multichannel pipette for 384-well plates, or proprietary Kalypsys bulk liquid dispenser for 1536-well plates. Compounds added using proprietary pin-transfer device (500 nL or 5 nL) and incubated 5 to 30 hours prior to analysis. Luminescence is measured using Aquest plate reader (Molecular Devices).

SMILES	pIC50 [1]	pIC50 [2]
CC(=O)SCC(=O)c1ccc(NS(=O)(=O)c2ccc(Oc3ccccc3C)cc2)cc1 [Example 01, Thioacetic acid S-{2-oxo-2-[4-(4-o-tolyloxy-benzenesulfonylamino)-phenyl]-ethyl} ester]	≥ 6.00	≥ 6.00
CC(=O)SCC(=O)c1ccc(NS(=O)(=O)c2ccc(Oc3ccccc3)cc2)cc1 [Example 03, Thioacetic acid S-{2-oxo-2-[4-(4-phenoxy-benzenesulfonylamino)-phenyl]-ethyl} ester]	≥ 6.00	≥ 6.00
CC(=O)SCC(=O)c1ccc(NS(=O)(=O)c2ccc(Oc3ccc(Cl)cc3)cc2)cc1 [Example 04, Thioacetic acid S-(2-{4-[4-(4-chloro-phenoxy)-benzenesulfonylamino]-phenyl}-2-oxo-ethyl) ester]	≥ 6.00	≥ 6.00
CC(=O)SCC(=O)c1ccc(NS(=O)(=O)c2ccc(S(=O)(=O)N3CCOCC3)cc2)cc1 [Example 05, Thioacetic acid S-(2-{4-[4-(morpholine-4-sulfonyl)-benzenesulfonylamino]-phenyl}-2-oxo-ethyl) ester]	≥ 6.00	≥ 6.00
CC(=O)SCC(=O)c1ccc(NS(=O)(=O)c2ccc(CN3CCOCC3)cc2)cc1 [Example 07, Thioacetic acid S-{2-[4-(4-morpholin-4-ylmethyl-benzenesulfonylamino)-phenyl]-2-oxo-ethyl} ester]	≥ 6.00	≥ 6.00
CC(=O)SCC(=O)c1ccc(NS(=O)(=O)c2ccc(NCc3ccccn3)cc2)cc1 [Example 08, Thioacetic acid S-[2-oxo-2-(4-{4-[(pyridin-2-ylmethyl)-amino]-benzenesulfonylamino}-phenyl)-ethyl] ester]	≥ 6.00	≥ 6.00
CC(=O)SCC(=O)c1ccc(NS(=O)(=O)c2ccc(OC3CCN(C)CC3)cc2)cc1 [Example 10, Thioacetic acid S-(2-{4-[4-(1-methyl-piperidin-4-yloxy)-benzenesulfonylamino]-phenyl}-2-oxo-ethyl) ester]	≥ 6.00	≥ 6.00
CC(=O)SCC(=O)c1ccc(NS(=O)(=O)c2ccc(OCCCN3CCOCC3)cc2)nc1 [Example 11, Thioacetic acid S-(2-{6-[4-(3-morpholin-4-yl-propoxy)-benzenesulfonylamino]-pyridin-3-yl}-2-oxo-ethyl) ester]	≥ 6.00	≥ 6.00
CC(=O)SCC(=O)c1ccc(NS(=O)(=O)c2ccc(OCCCN3CCOCC3)cc2)cc1 [Example 12, Thioacetic acid S-(2-{4-[4-(3-morpholin-4-yl-propoxy)-benzenesulfonylamino]-phenyl}-2-oxo-ethyl) ester]	≥ 6.00	≥ 6.00
CC(=O)SCC(=O)c1ccc(NS(=O)(=O)c2ccc(OCCCCc3ccccc3)cc2)cc1 [Example 13, Thioacetic acid S-(2-oxo-2-{4-[4-(4-phenyl-butoxy)-benzenesulfonylamino]-phenyl}-ethyl) ester]	≥ 6.00	≥ 6.00
CC(=O)SCC(=O)c1ccc(NS(=O)(=O)c2ccc(OCCCCc3ccccc3)cc2)nc1 [Example 14, Thioacetic acid S-(2-oxo-2-{6-[4-(4-phenyl-butoxy)-benzenesulfonylamino]-pyridin-3-yl}-ethyl) ester]	≥ 6.00	≥ 6.00
CC(=O)SCC(=O)c1ccc(NS(=O)(=O)c2ccc(OCc3ccccn3)cc2)cc1 [Example 15, Thioacetic acid S-(2-oxo-2-{4-[4-(pyridin-2-ylmethoxy)-benzenesulfonylamino]-phenyl}-ethyl) ester]	≥ 6.00	≥ 6.00
CC(=O)SCC(=O)c1ccc(NS(=O)(=O)c2ccc(OCCCc3cccnc3)cc2)cc1 [Example 16, Thioacetic acid S-(2-oxo-2-{4-[4-(3-pyridin-3-yl-propoxy)-benzenesulfonylamino]-phenyl}-ethyl) ester]	≥ 6.00	< 6.00
CC(=O)SCC(=O)c1ccc(NS(=O)(=O)c2ccc(OCCCc3ccccn3)cc2)cc1 [Example 17, Thioacetic acid S-(2-oxo-2-{4-[4-(3-pyridin-2-yl-propoxy)-benzenesulfonylamino]-phenyl}-ethyl) ester]	≥ 6.00	≥ 6.00
CC(=O)SCC(=O)c1ccc(NS(=O)(=O)c2ccc(OCCc3ccccn3)cc2)nc1 [Example 18, Thioacetic acid S-(2-oxo-2-{6-[4-(2-pyridin-2-yl-ethoxy)-benzenesulfonylamino]-pyridin-3-yl}-ethyl) ester]	≥ 6.00	≥ 6.00
CC(=O)SCC(=O)c1ccc(NS(=O)(=O)c2ccc(OCCN3CCCCC3)cc2)cc1 [Example 19, Thioacetic acid S-(2-oxo-2-{4-[4-(2-piperidin-1-yl-ethoxy)-benzenesulfonylamino]-phenyl}-ethyl) ester]	≥ 6.00	≥ 6.00
CC(=O)SCC(=O)c1ccc(NS(=O)(=O)c2ccc(OCCN3CCOCC3)cc2)cc1 [Example 20, Thioacetic acid S-(2-{4-[4-(2-morpholin-4-yl-ethoxy)-benzenesulfonylamino]-phenyl}-2-oxo-ethyl) ester]	≥ 6.00	≥ 6.00
CC(=O)SCC(=O)c1ccc(NS(=O)(=O)c2ccc(OCCc3ccccn3)cc2)cc1 [Example 21, Thioacetic acid S-(2-oxo-2-{4-[4-(2-pyridin-2-yl-ethoxy)-benzenesulfonylamino]-phenyl}-ethyl) ester]	≥ 6.00	≥ 6.00
CC(=O)SCC(=O)c1ccc(NS(=O)(=O)c2ccc(OCCCN3CCCCC3)cc2)cc1 [Example 22, Thioacetic acid S-(2-oxo-2-{4-[4-(3-piperidin-1-yl-propoxy)-benzenesulfonylamino]-phenyl}-ethyl) ester]	≥ 6.00	≥ 6.00
CC(=O)SCC(=O)c1ccc(NS(=O)(=O)c2ccc(OCc3ccccn3)cc2)nc1 [Example 23, Thioacetic acid S-(2-oxo-2-{6-[4-(pyridin-2-ylmethoxy)-benzenesulfonylamino]-pyridin-3-yl}-ethyl) ester]	≥ 6.00	≥ 6.00
CC(=O)SCC(=O)c1ccc(NS(=O)(=O)c2ccc(OCCN3CCCCC3)cc2)nc1 [Example 24, Thioacetic acid S-(2-oxo-2-{6-[4-(2-piperidin-1-yl-ethoxy)-benzenesulfonylamino]-pyridin-3-yl}-ethyl) ester]	≥ 6.00	≥ 6.00
CC(=O)SCC(=O)c1ccc(NS(=O)(=O)c2ccc(OCCCN3CCCCC3)cc2)nc1 [Example 25, Thioacetic acid S-(2-oxo-2-{6-[4-(3-piperidin-1-yl-propoxy)-benzenesulfonylamino]-pyridin-3-yl}-ethyl) ester]	≥ 6.00	≥ 6.00
CC(=O)SCC(=O)c1ccc(NS(=O)(=O)c2ccc(OCCN3CCCC3)cc2)nc1 [Example 26, Thioacetic acid S-(2-oxo-2-{6-[4-(2-pyrrolidin-1-yl-ethoxy)-benzenesulfonylamino]-pyridin-3-yl}-ethyl) ester]	≥ 6.00	≥ 6.00
CC(=O)SCC(=O)c1ccc(NS(=O)(=O)c2ccc(OCc3cccnc3)cc2)nc1 [Example 27, Thioacetic acid S-(2-oxo-2-{6-[4-(pyridin-3-ylmethoxy)-benzenesulfonylamino]-pyridin-3-yl}-ethyl) ester]	≥ 6.00	≥ 6.00
CC(=O)SCC(=O)c1ccc(NS(=O)(=O)c2ccc(OCCCc3ccccn3)cc2)nc1 [Example 28, Thioacetic acid S-(2-oxo-2-{6-[4-(3-pyridin-2-yl-propoxy)-benzenesulfonylamino]-pyridin-3-yl}-ethyl) ester]	≥ 6.00	≥ 6.00
CC(=O)SCC(=O)c1ccc(NS(=O)(=O)c2ccc(OC3CCN(C)CC3)cc2)nc1 [Example 29, Thioacetic acid S-(2-{6-[4-(1-methyl-piperidin-4-yloxy)-benzenesulfonylamino]-pyridin-3-yl}-2-oxo-ethyl) ester]	≥ 6.00	≥ 6.00
CC(=O)SCC(=O)c1ccc(NS(=O)(=O)c2ccc(OC3CCCN(C)C3)cc2)nc1 (stereo not drawn) [Example 30, Thioacetic acid S-(2-{6-[4-(1-methyl-piperidin-3-yloxy)-benzenesulfonylamino]-pyridin-3-yl}-2-oxo-ethyl) ester]	≥ 6.00	≥ 6.00
